Measured values as given in a compilation of properties of binary mixtures (doi:10.1007/s10953-021-01067-6).

Assay: xn = mol fraction of the nth substance listed
Conditions: 101.3 kPa

CCCCCC[NH2+]CCN.O=S(=O)([N-]S(=O)(=O)C(F)(F)F)C(F)(F)F + O
Conditions	electrical conductivity [S/m]	viscosity [mPa·s]
303.15 K, x1 = 0.401	0.251	51.4
303.15 K, x1 = 0.4387	0.209	66.6
303.15 K, x1 = 0.5021	0.135	104
303.15 K, x1 = 0.5762	0.066	117
303.15 K, x1 = 0.6827	0.0619	168
303.15 K, x1 = 0.8153	0.0416	226
303.15 K, x1 = 0.8939	0.0284	260
308.15 K, x1 = 0.401	0.324	40.1
308.15 K, x1 = 0.4387	0.267	51
308.15 K, x1 = 0.5762	0.0972	86.6
308.15 K, x1 = 0.6827	0.085	131
308.15 K, x1 = 0.8153	0.0537	160
308.15 K, x1 = 0.8939	0.0432	179
313.15 K, x1 = 0.401	0.396	31.8
313.15 K, x1 = 0.4387	0.328	39.8
313.15 K, x1 = 0.5021	0.221	59.1
313.15 K, x1 = 0.5762	0.138	65.5
313.15 K, x1 = 0.6827	0.11	97.4
313.15 K, x1 = 0.8153	0.0733	118
313.15 K, x1 = 0.8939	0.056	131
318.15 K, x1 = 0.401	0.485	25.7
318.15 K, x1 = 0.4387	0.409	31.6
318.15 K, x1 = 0.5021	0.278	45.9
318.15 K, x1 = 0.6827	0.144	74.1
318.15 K, x1 = 0.8153	0.0987	88.2
318.15 K, x1 = 0.8939	0.075	95.9
323.15 K, x1 = 0.4387	0.502	25.6
323.15 K, x1 = 0.5021	0.34	36.3
323.15 K, x1 = 0.5762	0.232	39.6
323.15 K, x1 = 0.6827	0.184	57.4
323.15 K, x1 = 0.8153	0.13	65.4
323.15 K, x1 = 0.8939	0.101	72.1
328.15 K, x1 = 0.401	0.71	17.7
328.15 K, x1 = 0.4387	0.603	20.9
328.15 K, x1 = 0.5762	0.288	31.6
328.15 K, x1 = 0.8153	0.166	50.6
328.15 K, x1 = 0.8939	0.13	55.6
333.15 K, x1 = 0.401	0.838	15
333.15 K, x1 = 0.4387	0.727	17.4
333.15 K, x1 = 0.5021	0.505	23.8
333.15 K, x1 = 0.5762	0.372	25.7
333.15 K, x1 = 0.6827	0.293	35.8
333.15 K, x1 = 0.8153	0.21	39.8
333.15 K, x1 = 0.8939	0.169	43.6
338.15 K, x1 = 0.401	0.973	12.8
338.15 K, x1 = 0.4387	0.858	14.7
338.15 K, x1 = 0.5762	0.441	21.2
338.15 K, x1 = 0.6827	0.359	29.2
338.15 K, x1 = 0.8153	0.263	31.8
338.15 K, x1 = 0.8939	0.203	36.5
343.15 K, x1 = 0.401	1.13	11.1
343.15 K, x1 = 0.4387	1.01	11.9
343.15 K, x1 = 0.5021	0.705	16.5
343.15 K, x1 = 0.5762	0.521	17.7
343.15 K, x1 = 0.8939	0.255	28.2
348.15 K, x1 = 0.4387	1.12	10.3
348.15 K, x1 = 0.5021	0.808	14
348.15 K, x1 = 0.6827	0.503	20.5
348.15 K, x1 = 0.8153	0.399	21.4
348.15 K, x1 = 0.8939	0.31	24.4
353.15 K, x1 = 0.401	1.47	8.8
353.15 K, x1 = 0.4387	1.34	9
353.15 K, x1 = 0.5021	0.908	12
353.15 K, x1 = 0.6827	0.601	16.9
353.15 K, x1 = 0.8153	0.37	17
353.15 K, x1 = 0.8939	–	20.7
